We go through one molecule from US20250249025A1, “DRUG DELIVERY CARRIER UTILIZING PROPERTY OF D-ALLOSE BEING UPTAKEN BY CANCER CELL, DRUG DELIVERY METHOD, AND COMPOSITION FOR TREATING RENAL CELL CARCINOMA” (NATIONAL UNIVERSITY CORPORATION KAGAWA UNIVERSITY, priority 2019, published 2025).

Series [1] relates to human renal cell carcinoma cell line Caki-II. Description: Rare sugar uptake experiment, sugar content in disrupted cell suspension of Caki-II. It is filed as cell-based. The protocol:
(§1) An uptake amount of a rare sugar, which had been added to a medium, into carcinoma cells was analyzed using the cell lines of three types of cancers. As the rare sugar, four kinds, that is, D-allose, D-allulose (D-psicose), L-allulose (L-psicose), and allitol were used, while D-glucose and fructose were used as a monosaccharide which was not a rare sugar.
(§2) Cells of each of the cell lines were cultured in RPMI-1640 media and during culturing, six sugars were each added to the resulting media and cultured. After culturing, an amount of each sugar taken up into the cells was analyzed. The medium to which no sugar was added during culturing was used as a control.
(§3) Used were human bladder carcinoma cell lines (RT112, 253), and J82), human prostatic carcinoma cell lines (LNCa, Du145, and PC-3), and human renal cell carcinoma cell lines (ACHN, Caki-I, and Caki-II).
(§4) After cells were cultured in RPMI-1640 (2000 mg D-glucose/L) media, the above monosaccharides and rare sugars were added to the resulting media, respectively. Described specifically, they were following seven combinations: RPMI-1640 alone (control), RPMI-1640+D-glucose, RPMI-1640+L-allulose, RPMI-1640+D-allulose, RPMI-1640+D-fructose, RPMI-1640+D-allose, and RPMI-1640+D-allitol. The final concentration of the sugar in the medium was adjusted to 10 mM and no sugar was added in the control.
(§5) Five-ml portions of a 3.0×10^4 cells/ml cell suspension prepared using RPMI-1640 were seeded in dishes having a diameter of 6 cm (1.5×10^5 cells/dish) and cultured for 24 hours in the RPMI-1640 medium containing 2000 mg/l of D-glucose as a nutrient source. Twenty-four hours later, the media were changed to the culture solutions containing the monosaccharides and rare sugars described above in 2), respectively, followed by culturing for 48 hours.
(§6) After culturing for 48 hours, the attached human carcinoma cells were mechanically separated and collected in a Spitz tube together with the culture solution and floating cells. After the supernatant formed by centrifugation (4° C., 1200 rpm, and 5 minutes) was removed to obtain cell pellets alone, 5 ml of a phosphate buffer physiological saline (PBS) was added for the purpose of washing to obtain a cell suspension of the cell pellets. A gain, the resulting cell suspension was centrifuged at 4° C. and 1200 rpm for 5 minutes and the supernatant was removed. To the cell pellets after washing was added 1 ml of pure water to suspend them therein. Ultrasonic disruption (intensity: 40%, 30 seconds) was then performed and the monosaccharide in the disrupted cell suspension was labeled with ABEE, followed by analysis by HPLC. From the area thus obtained, the sugar content in the cells was determined using a calibration curve. With respect to the ketose, two peaks were found after labeling with ABEE so that the sugar content in the cells was determined from the calibration curves of both peaks.

The test system of series [2] is human renal cell carcinoma cell line ACHN. Description: Rare sugar uptake experiment, sugar content in disrupted cell suspension of ACHN. It is filed as cell-based. The protocol:
as §1, §2, §3, §4, §5, §6

Series [3] relates to human bladder carcinoma cell line J82. Briefly: Rare sugar uptake experiment, sugar content in disrupted cell suspension of J82. Format: cell-based. The protocol: as §1, §2, §3, §4, §5, §6
For series [4], the system named is human renal cell carcinoma cell line Caki-I. Briefly: Rare sugar uptake experiment, sugar content in disrupted cell suspension of Caki-I. Format: cell-based. On the procedure: as §1, §2, §3, §4, §5, §6
Series [5] in a line: Fundamental safety tests (mutagenicity, biodegradability, oral acute toxicity, skin and eye primary irritation). The conditions noted are these: conducted by a designated agency at the inventors' request. The text has this: With respect to the verification of the safety of D-allose necessary for the use of it as a pharmaceutical ingredient, it was expectable that it was safe because a rare sugar was a monosaccharide present in nature, though its amount was trace. A mutagenicity test, a biodegradability test, and three acute toxicity tests (oral acute toxicity test, skin primary irritation test, and eye primary irritation test) have been determined as the most fundamental safety tests. The present inventors asked a designated agency to conduct the fundamental safety tests of D-allose.

Series [6] has as its system human bladder carcinoma cell line 253J. Description: Rare sugar uptake experiment, sugar content in disrupted cell suspension of 253J. Format: cell-based. The protocol:
as §1, §2, §3, §4, §5, §6

The nature of series [7]: Body weight in renal cell carcinoma xenograft mouse models. Format: in vivo, mice. The note with it: Control, 100 mg/kg and 400 mg/kg intraperitoneal once a day for 5 weeks; Mann-Whitney U test; FIG. 6. On the procedure: The day when the tumor size of the renal cell carcinoma xenograft mouse models became 200 mm^3 or more was called day 0 and the intraperitoneal injection of a D-allose-containing solution was started from day 1. The solution injected is 0.4 mL of physiological saline or a solution obtained by dissolving 100 mg/kg or 400 mg/kg of D-allose in 0.4 mL physiological saline. The resulting solution was intraperitoneally injected into three groups of mice (Control, 100 mg/kg of D-allose, and 400 mg/kg of D-allose) once a day for 5 weeks in total. The body weight of the mice and the long and short diameters of the tumor were measured over time twice a week. It is to be noted that the tumor volume was obtained as a product of long diameter×short diameter×short diameter of the tumor×0.5. On day 35 after the intraperitoneal injection was started, the tumor as well as the liver and kidney were excised from the mice and provided for the experiment performed thereafter.

`O=C[C@H](O)[C@H](O)[C@H](O)[C@H](O)CO` [D-allose]: the “D-glucose content in cell” value in series [1] (Caki-II, named sugar added to RPMI-1640 at 10 mM, 48 hours, HPLC after ABEE labeling) was determined as 3.4 µg; in series [2] (ACHN, named sugar added to RPMI-1640 at 10 mM, 48 hours, HPLC after ABEE labeling) it was 1.8 µg; in series [3] (J82, named sugar added to RPMI-1640 at 10 mM, 48 hours, HPLC after ABEE labeling) it was 11.2 µg; in series [4] (Caki-I, named sugar added to RPMI-1640 at 10 mM, 48 hours, HPLC after ABEE labeling), 2.1 µg; in series [6] (253J, named sugar added to RPMI-1640 at 10 mM, 48 hours, HPLC after ABEE labeling), 11.5 µg. Moreover, the “Content in cell of the added sugar” value stood at 11.2 µg in series [1] (human, 48 h, 10 mM); 11.2 µg in series [2] (human, 48 h, 10 mM); 0.0 µg in series [3] (human, 48 h, 10 mM); 13.2 µg in series [4] (human, 48 h, 10 mM); 0.0 µg in series [6] (human, 48 h, 10 mM). In addition, the “Result of fundamental safety tests” value in series [5] was “no safety problems”. Moreover, the “Mice weight, difference among three groups” value in series [7] is reported as “No significant difference”.
